Common to all, as to assay: NCI anticancer screen, dose series, 48 h
The test system of experiment [1] is SK-MEL-5 melanoma.
The test system of experiment [2] is SK-OV-3 ovarian.
Experiment [3] concerns CAKI-1 renal.
Experiment [4] deals with HOP-62 NSCLC.
For experiment [5], the system named is NCI-H522 lung.
Experiment [6] relates to SK-MEL-28 melanoma.
In experiment [7] the test system is CCRF-CEM leukemia.
The subject of experiment [8] is COLO 205 colon.
For experiment [9], the system named is HOP-92 NSCLC.
For experiment [10], the system named is 786-0 renal.

Drawing on PubChem BioAssay (NCI), this text covers GI50 and TGI for 21 compounds.

“And” between values parts separate entries of the source, which are not always exact repeats. Equal values may be shown once.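 Values below derive from 48-hour exposures of cells grown in 96-well plates, with endpoints linearly interpolated between the two concentrations bracketing the appropriate inhibition level. GI50 marks 50% less growth. TGI: concentration producing complete growth inhibition.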

On to `O=C(CCCCN1CCN(CCCCC(=O)Nc2ccccc2C#C/C=C\C#Cc2ccccc2C(F)(F)F)CC1)Nc1ccccc1C#C/C=C\C#Cc1ccccc1C(F)(F)F`, for which the GI50 in experiment [1] is 9.26 µM; in experiment [2], 18.7 µM; in experiment [3], > 50 µM; in experiment [4] it was 12.2 µM; in experiment [5] it was 9.19 µM; in experiment [6] it was 9.76 µM. The GI50 in experiment [7] was 6.02 µM; in [8], 38.3 µM; in experiment [9], 4.14 µM; in experiment [10], 9.8 µM. In addition, the TGI in experiment [1] was 16.9 µM; in experiment [2], > 50 µM; in experiment [3] it was > 50 µM; in experiment [4], 32 µM; in experiment [5] it was 20.4 µM; in experiment [6], 18.4 µM. The TGI in [7] is 17 µM; in experiment [8], > 50 µM; in experiment [9], 11.5 µM; in experiment [10], 18.3 µM.
As for `COc1ccc(-c2cnc(-c3ccncc3-c3cccc(OC)c3)o2)cc1`, the GI50 in [1] is 0.0379 µM; in experiment [2] it was 0.0424 µM; in experiment [3], 0.866 µM; in experiment [4], 0.0531 µM; in [5] it was 0.019 µM; in experiment [6] it was 0.0639 µM. Also, the GI50 in [7] is 0.0389 µM; in experiment [8], 0.0375 µM; in experiment [9] it was 0.403 µM; in experiment [10] it was 0.0627 µM. The TGI in experiment [1] was 0.226 µM; in experiment [2], 17.1 µM; in experiment [3], 33 µM; in experiment [4] it was 23.8 µM; in experiment [5], 0.0615 µM; in [6] it was 17.8 µM. The TGI in [7] is 16 µM; in experiment [8], 1.23 µM; in experiment [9], 20.2 µM; in experiment [10], 15 µM.
Regarding `Cc1cc(OC2OC(CO)C(O)C(O)C2O)ccc1O` (configuration not stated), the TGI in experiment [1], in [2], in experiment [3], in experiment [4], in [5] and in experiment [6] was > 100 µM each time. For the same compound, the TGI in experiment [7], in [8], in experiment [9] and in experiment [10] was > 100 µM each time.
Regarding `CN1CCCc2nc3ccccc3n2C1`, the TGI in experiment [1], in [2], in [3], in experiment [4], in experiment [5] and in experiment [6] was > 100 µM each time. The TGI in [7], in experiment [8], in [9] and in experiment [10] was > 100 µM in each case.
Turning to `CCCCCCCCCCCCCC(=O)O[C@H]1CC[C@H](NC(=O)[C@H](OC)[C@H](O)[C@@H](O)[C@H](O)/C=C/C(C)C)C(=O)N(C)C1`, the GI50 in experiment [1] is 0.00347 µM; in experiment [2], 0.0194 µM; in experiment [4], > 23.8 µM; in experiment [5], 0.00689 µM; in experiment [6], 0.00238 µM; in experiment [7], 0.00238 µM. In addition, the GI50 in experiment [10] is 0.00238 µM. Moreover, the TGI in [1] is 0.337 µM and 0.0726 µM; in [2] it was 15 µM and > 23.8 µM; in experiment [3] it was 0.668 µM; in experiment [4], 15 µM and > 23.8 µM; in experiment [5], 0.269 µM and 0.168 µM; in [6], 15 µM and 3.57 µM. The TGI in [7] was 15 µM and 4.85 µM; in experiment [9], 0.0541 µM; in experiment [10] it was 15 µM and 3.18 µM.
`O=C1OC(=O)c2c1nc1ccccc1c2-c1ccccc1`: the TGI in experiment [1], in experiment [2], in experiment [3], in [4], in experiment [5] and in experiment [7] was > 100 µM in each case. Also, the TGI in experiment [8], in [9] and in experiment [10] was > 100 µM in each case.
Consider `CN(C)CCNC(=O)Nc1ccc(N(C)c2ccnc(Nc3ccc(CS(C)(=O)=O)cc3)n2)cc1`, for which the GI50 is > 25 µM in experiment [1]; > 25 µM in [2]; > 25 µM in [3]; > 25 µM in experiment [4]; > 16.9 µM in [5]; > 25 µM in experiment [6]. Also, the GI50 was 16.5 µM in experiment [7], > 25 µM in experiment [8], 6.99 µM in [9] and > 25 µM in experiment [10]. The TGI in experiment [1], in experiment [2], in experiment [3], in experiment [4], in experiment [5] and in [6] was > 25 µM in each case. Further, the TGI in experiment [7], in experiment [8], in experiment [9] and in experiment [10] was > 25 µM each time.
As to `C=C1C(=O)O[C@@H]2C[C@@]3(C)[C@H](O)CCC(=C)[C@@H]3C[C@H]12`, the TGI in experiment [1] was determined as 16.8 µM; in experiment [2], 52.6 µM; in experiment [3] it was 19.6 µM; in experiment [4] it was 34 µM; in [5] it was 17.6 µM; in experiment [6], 20.2 µM. The TGI in [7] came to 14.1 µM; in [8], 7.09 µM; in [9] it was 18.2 µM; in [10], 21.6 µM.
On to `Nc1ncnc2c1c(-c1ccc(Oc3ccccc3)cc1)nn2CC1SSCC1O` (configuration not stated), for which the GI50 is 1.29 µM in [1]; 1.35 µM in experiment [2]; 3.71 µM in [3]; 3.6 µM in [4]; 2.62 µM in [5]; 0.131 µM in experiment [6]. Also, the GI50 was 0.138 µM in [7], 1.25 µM in experiment [8], 1.72 µM in experiment [9] and 4.86 µM in [10]. The TGI in experiment [1] came to 5.07 µM; in experiment [2], 7.05 µM; in [3] it was 12.7 µM; in experiment [4], 11.1 µM; in experiment [5], 9.49 µM; in experiment [6], 0.92 µM. Besides, the TGI in [7] amounted to 32.5 µM; in experiment [8] it was 5.5 µM; in [9] it was 8.23 µM; in experiment [10], 11.2 µM.
`O=c1c2ccccc2nc(-c2cccc(Cl)c2)n1NC1OC(CO)C(O)C(O)C1O` (configuration not stated): the TGI in [1], in [2], in experiment [3], in [4], in experiment [5] and in experiment [6] was > 100 µM each time. The TGI in experiment [7], in [8], in experiment [9] and in experiment [10] was > 100 µM in each case.
As to `Cn1cc(-c2ccc3ncc(-c4ccc(CC(=O)Nc5cc(C(C)(C)C)nn5C)cc4)cc3c2)cn1`, the GI50 in experiment [1] is 0.756 µM; in experiment [2], 0.934 µM; in experiment [3], 0.541 µM; in experiment [4] it was 3.96 µM; in experiment [5] it was 0.995 µM; in experiment [6] it was 3.57 µM. In addition, the GI50 was 0.81 µM in experiment [7], 2.78 µM in experiment [8], 2.45 µM in experiment [9] and 1.28 µM in experiment [10]. Also, the TGI was 3 µM in [1]; > 20 µM in [2]; 7.15 µM in [3]; > 20 µM in experiment [4]; 9.06 µM in experiment [5]; > 20 µM in experiment [6]. Further, the TGI in experiment [7] is 16.6 µM; in experiment [8], > 20 µM; in [9] it was > 20 µM; in experiment [10] it was > 20 µM.
Regarding `O=C([O-])c1ccc([I+]c2ccccc2)cc1`, the TGI in [1], in [2], in experiment [3], in experiment [4], in experiment [5] and in [7] was > 100 µM each time. Besides, the TGI in experiment [8], in [9] and in [10] was > 100 µM throughout.
For the compound `[O-][n+]1c2cccc(O)c2[n+]([O-])c2cccc(O)c21`, the TGI in [1] was > 100 µM; in [2], > 100 µM; in [3], > 100 µM; in [4], > 100 µM; in [5] it was > 100 µM; in [7], 56 µM. For the same compound, the TGI in experiment [8] is > 100 µM; in [9], 97.5 µM; in [10], > 100 µM.
In the case of `O=c1[nH]c2ccccc2cc1-c1nnc(Cc2ccccc2)o1`, the GI50 in experiment [1] is 3.43 µM; in [2] it was 18.3 µM; in experiment [3], 3.65 µM; in [4], 12.6 µM; in experiment [5] it was 2.27 µM; in experiment [7] it was 1.7 µM. Further, the GI50 in [8] was 3.55 µM; in [9], 3.34 µM; in experiment [10], 4 µM. For the same compound, the TGI in experiment [1] was determined as 16.4 µM; in experiment [2], 38.1 µM; in experiment [3], 14.4 µM; in experiment [4], 34.3 µM; in experiment [5], 5.9 µM; in experiment [7], 7.79 µM. Further, the TGI in [8] is 13.2 µM; in [9] it was 15.3 µM; in [10] it was 14.6 µM.
On to `Nc1nc(-c2ccccc2)c(CC(=O)O)s1`, for which the TGI in [1], in experiment [2], in experiment [3], in [4], in [5] and in experiment [6] was > 100 µM each time. Also, the TGI in experiment [8], in experiment [9] and in experiment [10] was > 100 µM in each case.
As for `COc1cc2c(c3c1c(=O)c1ccccc1n3C)C=C([N+](=O)[O-])C(C)(C)O2`, the TGI in [1] was 0.0567 µM; in experiment [2], > 100 µM; in experiment [3], > 100 µM; in experiment [4], > 100 µM; in [5], > 34.4 µM; in [7] it was > 100 µM. The TGI in [9] and in experiment [10] was > 100 µM in each case.
For the compound `Cc1ccccc1Nc1cc(O)c2c(=O)cc(-c3ccccc3)oc2c1`, the GI50 in experiment [2] is 5.56 µM; in [3], 2.77 µM; in experiment [4], 3.23 µM; in experiment [5], 1.79 µM; in experiment [7], 2.25 µM; in experiment [9], 3.51 µM. Besides, in experiment [10], the GI50 is 4.42 µM. The TGI in experiment [2], in experiment [3], in experiment [4], in experiment [5], in experiment [7] and in experiment [9] was > 100 µM throughout. For the same compound, in experiment [10], the TGI is > 100 µM.
Consider `CCOC(=O)C[C@@]12CCCN[C@]1(C)CCc1ccccc12`, for which the TGI in [1], in experiment [2], in experiment [3], in experiment [4], in experiment [5] and in experiment [6] was > 100 µM throughout. Further, the TGI in experiment [7], in [9] and in experiment [10] was > 100 µM in each case.
Regarding `C#Cc1cccc(NC(=O)/C=C\C(=O)O)c1`, the TGI in experiment [1], in experiment [2], in experiment [3], in [5], in experiment [6] and in experiment [7] was > 100 µM each time. Also, the TGI in experiment [8], in experiment [9] and in experiment [10] was > 100 µM throughout.
As to `O=C(O)c1ccccc1NCn1nc(-c2ccccc2O)oc1=S`, the GI50 is 73.4 µM in experiment [1]; > 100 µM in experiment [3]; 39 µM in [4]; > 100 µM in experiment [5]; > 100 µM in [6]; 10.6 µM in experiment [7]. In addition, the figures for the GI50 in experiment [8], in [9] and in experiment [10] were 49.6 µM, 30.4 µM and 35.4 µM, respectively. Also, the TGI in [1] was > 100 µM; in experiment [3] it was > 100 µM; in experiment [4], > 100 µM; in experiment [5], > 100 µM; in experiment [6], > 100 µM; in experiment [7], 36.4 µM. In addition, the TGI in experiment [8] is > 100 µM; in experiment [9], 94.6 µM; in experiment [10], > 100 µM.
For the compound `COc1ccccc1/C=C(\NC(=O)c1ccccc1)c1nc2ccc(Cl)cc2[nH]1`, the TGI was 33.7 µM in experiment [1]; 84 µM in [2]; 74.4 µM in experiment [3]; 49.5 µM in experiment [5]; > 100 µM in [6]; > 100 µM in experiment [7]. Besides, the results for the TGI in experiment [8], in experiment [9] and in experiment [10] were 38.8 µM, 56.8 µM and 87.1 µM, respectively.
